Reference: US9585875B2, “TRPM8 antagonists” (Dompé S.P.A., priority 2011, dated 2017)

What was measured:
Female rats = test: Isovolumetric bladder model; assay type: in vivo, rat
Method: Female rats were anesthetized with urethane. Ureters were ligated and sectioned. A catheter was inserted through the urinary meatus into the bladder before urethral ligature. […] 10 or 45 or with 100 μL of vehicle, then with 100 μL of saline every 5 min until the occurrence of rhythmic bladder contraction (RBC). A maximal volume of 3 mL was infused. The intravesical pressure was followed during 1 h30 after RBC appearance. For each group, Threshold Volume (TV), Micturition Frequency (MF) and Amplitude of Micturition (AM) were measured during the whole period. […] No effect on the total MF (measured during 90 min) was observed.

Plasma stability [1] = assay type: in vitro ADME; conditions: rat
Plasma stability [2] = assay type: in vitro ADME; conditions: human
[3] = intravesical, 3 times 100 μL containing 0.1 mg

| SMILES | reduction of Micturition Frequency (MF) (Female rats; 10 mg/kg i.v., first 30 min of the experiment) | continuous rhythmic bladder contraction (RBC) induced by filling with saline (Female rats; intravesical route, 2.3 mg/rat) | Amplitude of Micturition (AM) (Female rats; [3]) | Threshold Volume (TV) (Female rats; [3]) | effect on the total Micturition Frequency (MF) (Female rats; intravesical, 3 times 100 μL containing 0.1 mg, measured during 90 min) | Plasma stability (% remaining) @10 μM (Plasma stability [1]) | Plasma stability (% remaining) @10 μM (Plasma stability [2]) |
| --- | --- | --- | --- | --- | --- | --- | --- |
| CCOC(=O)c1sc(-c2cccc(F)c2)nc1O [Compound 10, ethyl 2-(3-fluorophenyl)-4-hydroxy-1,3-thiazole-5-carboxylate] | about 36% | completely abolished | did not change | 1.5 mL | No effect |  |  |
| O=C(O)c1sc(-c2ccc(Cl)cc2)nc1OCc1ccc(Cl)cc1 [Compound 45, 4-[(4-chlorobenzyl)oxy]-2-(4-chlorophenyl)-1,3-thiazole-5-carboxylic acid] |  |  |  |  |  | 9% | 1% |
